Laboratory results reported in US20230190769A1, “E PROTEIN CHANNEL BLOCKERS AND ORF3 INHIBITORS AS ANTI-COVID-19 AGENTS” (priority 2020, published 2023).
Where two headings read alike, the source gives them in different places.

Key:
Assay type in all cases: cell-based
SARS-CoV-2 3a protein = SARS-CoV-2 3a protein (Severe acute respiratory syndrome coronavirus 2, UniProt P0DTC3)
SARS-CoV-2 E protein [1] = target: T1, SARS-CoV-2 E protein (Severe acute respiratory syndrome coronavirus 2, UniProt P0DTC4)
SARS-CoV-2 = details: for protection, effect on cell survival (FIG. 24 legend): individual 3a protein inhibitor at a concentration of 3 μM; for cell survival (in words): sole compound at 3, FIG. 24; for effectiveness of compounds on their own: sole compounds, protection of cells against viral death
SARS-CoV-2 E protein [2] = target: T1, SARS-CoV-2 E protein; remark: listed apart in the source
SARS-CoV-2 E protein [3] = target: T1, SARS-CoV-2 E protein; remark: listed apart in the source
[4] = 3,000 molecules screened against 3a protein
[5] = 3000 molecules screened against E protein

T1 sequence (P0DTC4 whole entry, looked up): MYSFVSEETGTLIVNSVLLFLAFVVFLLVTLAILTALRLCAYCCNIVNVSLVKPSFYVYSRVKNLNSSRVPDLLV
SARS-CoV-2 3a protein, sequence (P0DTC3 whole entry, looked up): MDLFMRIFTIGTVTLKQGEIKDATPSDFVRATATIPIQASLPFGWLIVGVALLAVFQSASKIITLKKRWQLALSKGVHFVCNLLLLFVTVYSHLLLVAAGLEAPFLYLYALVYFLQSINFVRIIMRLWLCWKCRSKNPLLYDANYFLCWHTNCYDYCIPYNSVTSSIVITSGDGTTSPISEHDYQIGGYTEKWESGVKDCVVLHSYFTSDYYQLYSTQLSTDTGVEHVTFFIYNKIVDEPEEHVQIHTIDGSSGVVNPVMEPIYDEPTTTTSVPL

Compound | outcome of screen: SARS-CoV-2 3a protein inhibitor (SARS-CoV-2 3a protein; [4]) | outcome of screen: SARS-CoV-2 E protein channel blocker (SARS-CoV-2 E protein [1]; [5]) | other results
O=c1[nH]c(=O)n(C2CC(O)C(CO)O2)cc1F (stereo not shown) [Floxuridine, 5-Fluoro-1-[4-hydroxy-5-(hydroxymethyl)tetrahydrofuran-2-yl]-1H-pyrimidine-2,4-dione] | can be used as SARS-CoV-2 3a protein inhibitor | – | –
c1cc(CN2CCCNCCNCCCNCC2)ccc1CN1CCCNCCNCCCNCC1 [Plerixafor, 1-[[4-(1,4,8,11-tetrazacyclotetradec-1-ylmethyl)phenyl]methyl]-1,4,8,11-tetrazacyclotetradecane] | – | – | outcome of screen: SARS-CoV-2 E protein channel blocker (SARS-CoV-2 E protein [1]): can be used as SARS-CoV-2 E protein channel blocker; outcome of screen: SARS-CoV-2 3a protein inhibitor (SARS-CoV-2 3a protein): can be used as SARS-CoV-2 3a protein inhibitor
C1CNCCNCCNCCN1 [Cyclen, 1,4,7,10-Tetraazacyclododecane] | – | can be used as SARS-CoV-2 E protein channel blocker | –
CCO[C@@H](Cc1ccc(OCCn2c(C)ccc2-c2ccc(SC)cc2)cc1)C(=O)O [Saroglitazar Magnesium, (αS)-α-Ethoxy-4-[2-[2-methyl-5-[4-(methylthio)phenyl]-1H-pyrrol-1-yl]ethoxy]benzenepropanoic Acid] | – | can be used as SARS-CoV-2 E protein channel blocker | –
N=C(N)c1ccc(OCCCCCOc2ccc(C(=N)N)cc2)cc1 [Pentamidine, 4,4′-[pentane-1,5-diylbis(oxy)]dibenzenecarboximidamide] | can be used as SARS-CoV-2 3a protein inhibitor | – | –
Cc1ncc(NC(=O)c2ccc(CN3CCN(C)CC3)c(C(F)(F)F)c2)cc1Nc1nccc(-c2cccnc2)n1 [Flumatinib, 4-[(4-methylpiperazin-1-yl)methyl]-N-[6-methyl-5-[(4-pyridin-3-ylpyrimidin-2-yl)amino]pyridin-3-yl]-3-(trifluoromethyl)benzamide] | can be used as SARS-CoV-2 3a protein inhibitor | – | protection, effect on cell survival (FIG. 24 legend) (SARS-CoV-2): near full protection; cell survival (in words) (SARS-CoV-2): near full survival; effectiveness of compounds on their own (SARS-CoV-2): most effective
CC12CC3CC(C)(C1)CC(N)(C3)C2 [Memantine, 1-amino-3,5-dimethyladamantane] | – | can be used as SARS-CoV-2 E protein channel blocker | bacterial growth in negative assay (SARS-CoV-2 E protein [2]): enhance bacterial growth; bacterial growth in positive assay (SARS-CoV-2 E protein [3]): inhibited growth
Cc1cc(C)c(NC(=O)CN(CC(=O)O)CC(=O)O)c(C)c1Br [Mebrofenin, 2-[[2-(3-bromo-2,4,6-trimethylanilino)-2-oxoethyl]-(carboxymethyl)amino]acetic acid] | – | can be used as SARS-CoV-2 E protein channel blocker | –
CCN(CC)CCN(Cc1ccc(-c2ccc(C(F)(F)F)cc2)cc1)C(=O)Cn1c(SCc2ccc(F)cc2)nc(=O)c2c1CCC2 [Darapladib, N-(2-Diethylaminoethyl)-2-[2-[(4-fluorophenyl)methylsulfanyl]-4-oxo-6,7-dihydro-5H-cyclopenta[d]pyrimidin-1-yl]-N-[[4-[4-(trifluoromethyl)phenyl]phenyl]methyl]acetamide] | can be used as SARS-CoV-2 3a protein inhibitor | – | protection, effect on cell survival (FIG. 24 legend) (SARS-CoV-2): near full protection; cell survival (in words) (SARS-CoV-2): full survival; effectiveness of compounds on their own (SARS-CoV-2): most effective
CCNCCS(=O)(=O)NC[C@@]1(c2ccccc2)SC(NC(=O)C(C)(C)C)=NN1C(=O)C(C)(C)C [Litronesib, N-[(5R)-4-(2,2-dimethylpropanoyl)-5-[[2-(ethylamino)ethylsulfonylamino]methyl]-5-phenyl-1,3,4-thiadiazol-2-yl]-2,2-dimethylpropanamide] | can be used as SARS-CoV-2 3a protein inhibitor | – | –
NCCCCN(Cc1nc2ccccc2[nH]1)[C@H]1CCCc2cccnc21 [Mavorixafor, N-(1H-benzimidazol-2-ylmethyl)-N-[(8S)-5,6,7,8-tetrahydroquinolin-8-yl]butane-1,4-diamine] | – | can be used as SARS-CoV-2 E protein channel blocker | –
Nc1ncn([C@@H]2O[C@H](CO)[C@@H](O)[C@H]2O)c(=O)n1 [Azacytidine, 4-Amino-1-β-D-ribofuranosyl-s-triazin-2(1H)-one] | – | can be used as SARS-CoV-2 E protein channel blocker | –
C[C@H]1O[C@H](OC2[C@@H](O)[C@@H](O)C(O)[C@H](O)[C@H]2O)[C@@H](N)C[C@@H]1N=C(N)C(=O)O (stereo partly drawn) [Kasugamycin, 2-amino-2-[(2R,3 S,5 S,6R)-5-amino-2-methyl-6-[(2R,3 S,5S,6S)-2,3,4,5,6-pentahydroxycyclohexyl]oxyoxan-3-yl]iminoacetic acid] | can be used as SARS-CoV-2 3a protein inhibitor | can be used as SARS-CoV-2 E protein channel blocker | –
CN[C@@H]1[C@H](O)[C@H](NC)[C@H]2O[C@@]3(O)C(=O)C[C@@H](C)O[C@H]3O[C@@H]2[C@H]1O [Spectinomycin] | can be used as SARS-CoV-2 3a protein inhibitor | – | –
Cc1ccc(S(=O)(=O)NC(=O)NN2CC3CCCC3C2)cc1 (stereo not shown) [Gliclazide, 1-(3-azabicyclo(3.3.0)oct-3-yl)-3-(p-tolylsulfonyl)urea] | – | can be used as SARS-CoV-2 E protein channel blocker | bacterial growth in negative assay (SARS-CoV-2 E protein [2]): enhance bacterial growth; bacterial growth in positive assay (SARS-CoV-2 E protein [3]): inhibited growth
Capreomycin | can be used as SARS-CoV-2 3a protein inhibitor | – | –
